Target: MRP2 (ABCC2) (Homo sapiens, UniProt Q92887)
Assay: in vitro
[1] = probe estradiol-17-beta-glucuronide
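Further: Inside-out membrane vesicles from Sf9 insect cells expressing human MRP2, measuring uptake of the estradiol glucuronide substrate, expressed as percent of untreated control.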

Chain of MRP2 (ABCC2) (Q92887 whole entry): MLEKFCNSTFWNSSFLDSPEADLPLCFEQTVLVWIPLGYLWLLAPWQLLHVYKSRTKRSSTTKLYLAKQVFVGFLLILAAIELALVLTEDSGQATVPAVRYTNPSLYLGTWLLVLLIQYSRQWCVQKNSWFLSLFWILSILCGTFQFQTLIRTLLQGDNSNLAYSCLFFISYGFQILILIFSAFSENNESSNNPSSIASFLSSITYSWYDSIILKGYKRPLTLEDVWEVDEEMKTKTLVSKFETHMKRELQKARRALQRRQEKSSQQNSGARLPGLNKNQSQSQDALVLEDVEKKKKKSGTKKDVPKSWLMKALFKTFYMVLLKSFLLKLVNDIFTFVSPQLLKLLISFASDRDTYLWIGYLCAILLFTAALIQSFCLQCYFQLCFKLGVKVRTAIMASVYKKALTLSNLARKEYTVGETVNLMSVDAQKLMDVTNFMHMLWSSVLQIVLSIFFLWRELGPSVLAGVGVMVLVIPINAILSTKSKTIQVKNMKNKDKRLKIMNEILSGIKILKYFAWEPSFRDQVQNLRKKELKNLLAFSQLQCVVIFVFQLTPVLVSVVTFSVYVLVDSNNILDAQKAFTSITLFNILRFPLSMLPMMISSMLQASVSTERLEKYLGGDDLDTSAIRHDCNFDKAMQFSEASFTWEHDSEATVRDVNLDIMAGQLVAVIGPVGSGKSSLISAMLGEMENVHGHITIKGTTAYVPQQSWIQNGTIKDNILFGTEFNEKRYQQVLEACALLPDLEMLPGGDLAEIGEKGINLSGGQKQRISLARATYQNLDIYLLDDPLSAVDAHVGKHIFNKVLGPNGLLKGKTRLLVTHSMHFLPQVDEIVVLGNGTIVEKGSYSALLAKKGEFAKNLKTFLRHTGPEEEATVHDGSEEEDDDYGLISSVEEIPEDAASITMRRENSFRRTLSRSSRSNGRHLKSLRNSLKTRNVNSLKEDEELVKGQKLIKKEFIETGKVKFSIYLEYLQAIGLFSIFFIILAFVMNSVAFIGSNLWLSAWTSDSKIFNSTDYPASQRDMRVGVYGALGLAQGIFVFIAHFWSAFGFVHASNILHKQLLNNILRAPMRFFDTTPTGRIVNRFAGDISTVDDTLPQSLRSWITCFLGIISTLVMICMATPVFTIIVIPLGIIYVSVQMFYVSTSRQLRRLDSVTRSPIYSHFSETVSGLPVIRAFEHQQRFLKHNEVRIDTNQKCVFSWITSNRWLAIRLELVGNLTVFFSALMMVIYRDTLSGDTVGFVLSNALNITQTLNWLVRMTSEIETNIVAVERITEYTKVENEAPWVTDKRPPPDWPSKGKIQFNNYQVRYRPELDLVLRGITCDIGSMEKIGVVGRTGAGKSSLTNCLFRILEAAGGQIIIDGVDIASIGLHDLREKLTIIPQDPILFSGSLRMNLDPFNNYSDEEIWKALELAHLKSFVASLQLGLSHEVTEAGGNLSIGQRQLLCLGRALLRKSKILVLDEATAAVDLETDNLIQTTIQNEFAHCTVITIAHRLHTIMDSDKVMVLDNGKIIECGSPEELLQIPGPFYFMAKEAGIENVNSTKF
Description: Effect on human MRP2-mediated estradiol-17-beta-glucuronide transport in Sf9 cells inverted membrane vesicles relative to control

SMILES	activity [1] [%]	activity (sf9) [%]
CC(C)(C)NC(=O)[C@@H]1C[C@@H]2CCCC[C@@H]2CN1C[C@@H](O)[C@H](Cc1ccccc1)NC(=O)[C@H](CC(N)=O)NC(=O)c1ccc2ccccc2n1	41	
CC(=O)[C@@]1(O)CC[C@H]2[C@@H]3C[C@H](C)C4=CC(=O)CC[C@]4(C)[C@H]3CC[C@@]21C	111	
CC1=C(CC(=O)O)c2cc(F)ccc2/C1=C\c1ccc([S+](C)[O-])cc1 (stereo not given)	151	
CCN(CC)Cc1cc(Nc2ccnc3cc(Cl)ccc23)ccc1O	60	
CCC[C@@]1(CCc2ccccc2)CC(O)=C([C@H](CC)c2cccc(NS(=O)(=O)c3ccc(C(F)(F)F)cn3)c2)C(=O)O1	88	
C[n+]1ccc(-c2ccccc2)cc1	72	
CCOc1ccc(-c2nc3cc(-c4nc5cc(N6CCN(C)CC6)ccc5[nH]4)ccc3[nH]2)cc1	70	
COc1cc2c(cc1OC)CN(CCc1ccc(NC(=O)c3cccc4c(=O)c5cccc(OC)c5[nH]c34)cc1)CC2	39	
COc1ccc(/C=C/C(=O)Nc2ccccc2C(=O)O)cc1OC	98	
COc1ccc2c3c([nH]c2c1)[C@H](CC(C)C)N1C(=O)[C@H](CCC(=O)OC(C)(C)C)NC(=O)[C@@H]1C3		73
CC(=O)Nc1ccc(S(=O)(=O)Nc2ccc([N+](=O)[O-])cc2)cc1	116	
CC(=O)Oc1ccc2c(c1)Oc1cc(OC(C)=O)ccc1C21OC(=O)c2cc(C(=O)O)ccc21	7	
O=C(O)[C@H]1O[C@@H](Oc2ccc([N+](=O)[O-])cc2)[C@H](O)[C@@H](O)[C@@H]1O	99	
Cc1ccc(N(CC(=O)O)CC(=O)O)c(OCCOc2cc(-c3c4cc(Cl)c(=O)cc-4oc4cc(O)c(Cl)cc34)ccc2N(CC(=O)O)CC(=O)O)c1	9	
COc1ccc(CCN(C)CCCC(C#N)(c2ccc(OC)c(OC)c2)C(C)C)cc1OC (stereo not given)	56	
CC(C)(C)NC(=O)[C@@H]1CN(Cc2cccnc2)CCN1C[C@@H](O)CC(Cc1ccccc1)C(=O)N[C@H]1c2ccccc2C[C@H]1O (single isomer, unassigned)	93	
C#CC1(O)CC[C@H]2[C@@H]3CCc4cc(O)ccc4[C@H]3CC[C@@]21C (single isomer, unassigned) [ETHINYL ESTRADIOL]	53	
O=C1c2c(O)cc(O)cc2O[C@H](c2ccc(O)c(O)c2)[C@H]1O [(+)-TAXIFOLIN]	108	
CC(C)N(CC[C@](C(N)=O)(c1ccccc1)c1ccccn1)C(C)C [(S)-DISOPYRAMIDE]	104	
CC(=O)Nc1ccc(O[C@@H]2O[C@H](C(=O)O)[C@@H](O)[C@H](O)[C@H]2O)cc1 [ACETAMINOPHEN GLUCURONIDE]	150	
Nc1ncnc2c1ncn2CCOCP(=O)(O)O [ADEFOVIR]	96	
NC12CC3CC(CC(C3)C1)C2 [AMANTADINE]	101	
N=C(N)NC(=O)c1nc(Cl)c(N)nc1N [AMILORIDE]	82	
Nc1ccc(C(=O)NCC(=O)O)cc1 [AMINOHIPPURIC ACID]	46	
CCCCc1oc2ccccc2c1C(=O)c1cc(I)c(OCCN(CC)CC)c(I)c1 [AMIODARONE]		66
CN(C)CCC=C1c2ccccc2CCc2ccccc21 [AMITRIPTYLINE]	51	
Cc1cc(=O)n(-c2ccccc2)n1C [ANTIPYRINE]	84	

SMILES	activity [1] [%]	activity (sf9) [%]
O=c1cc(-c2ccc(O)cc2)oc2cc(O)cc(O)c12 [APIGENIN]	94	
COc1ccc(CCN2CCC(Nc3nc4ccccc4n3Cc3ccc(F)cc3)CC2)cc1 [ASTEMIZOLE]	36	
CNCC[C@@H](Oc1ccccc1C)c1ccccc1 [ATOMOXETINE]	109	
CN1[C@@H]2CC[C@H]1C[C@@H](OC(=O)C(CO)c1ccccc1)C2 (stereo not given in full) [ATROPINE]	59	
O=C(O)[C@H]1O[C@@H](Oc2cc3oc(-c4ccccc4)cc(=O)c3c(O)c2O)[C@H](O)[C@@H](O)[C@@H]1O [BAICALIN]	34	
CCc1oc2ccccc2c1C(=O)c1cc(Br)c(O)c(Br)c1 [BENZBROMARONE]	11	
COc1ccc(-c2coc3cc(O)cc(O)c3c2=O)cc1 [BIOCHANIN]	84	
CCCC1O[C@@H]2C[C@H]3[C@@H]4CCC5=CC(=O)C=C[C@]5(C)[C@H]4[C@@H](O)C[C@]3(C)[C@]2(C(=O)CO)O1 (stereo not given in full) [BUDESONIDE]	150	
CC(NC(C)(C)C)C(=O)c1cccc(Cl)c1 (stereo not given) [BUPROPION]	106	
C[C@H](CS)C(=O)N1CCC[C@H]1C(=O)O [CAPTOPRIL]	104	
NC(=O)N1c2ccccc2C=Cc2ccccc21 [CARBAMAZEPINE]	86	
C[N+](C)(C)C[C@H](O)CC(=O)[O-] [CARNITINE]	84	
CC1=C(C(=O)O)N2C(=O)[C@@H](NC(=O)[C@H](N)c3ccc(O)cc3)[C@H]2SC1 [CEFADROXIL]	68	
Cn1nnnc1SCC1=C(C(=O)O)N2C(=O)[C@@H](NC(=O)[C@H](O)c3ccccc3)[C@H]2SC1 [CEFAMANDOLE]	63	
Cc1ccc(-c2cc(C(F)(F)F)nn2-c2ccc(S(N)(=O)=O)cc2)cc1 [CELECOXIB]	46	
COc1ccc2c(c[n+](C)c3c4cc5c(cc4ccc23)OCO5)c1OC [CHELERYTHRINE CHLORIDE]	43	
C[C@H](CCC(=O)O)[C@H]1CC[C@H]2[C@@H]3[C@H](O)C[C@@H]4C[C@H](O)CC[C@]4(C)[C@H]3CC[C@]12C [CHENODIOL]	101	
CCN(CC)CCCC(C)Nc1ccnc2cc(Cl)ccc12 (stereo not given) [CHLOROQUINE]		102
CN(C)CCCN1c2ccccc2Sc2ccc(Cl)cc21 [CHLORPROMAZINE]		58
CN(C)CC/C=C1/c2ccccc2Sc2ccc(Cl)cc21 [CHLORPROTHIXENE]	25	
C[C@H](CCC(=O)O)[C@H]1CC[C@H]2[C@@H]3[C@H](O)C[C@@H]4C[C@H](O)CC[C@]4(C)[C@H]3C[C@H](O)[C@]12C [CHOLIC ACID]	112	
O=c1cc(-c2ccccc2)oc2cc(O)cc(O)c12 [CHRYSIN]	110	
CN/C(=N/CCSCc1nc[nH]c1C)NC#N [CIMETIDINE]		91
Clc1ccccc1C(c1ccccc1)(c1ccccc1)n1ccnc1 [CLOTRIMAZOLE]	14	
COc1cc2c(c(OC)c1OC)-c1ccc(OC)c(=O)cc1[C@@H](NC(C)=O)CC2 [COLCHICINE]	101	
CNCCCN1c2ccccc2CCc2ccccc21 [DESIPRAMINE]	57	
COc1ccc2c(c1)[C@]13CCCC[C@@H]1[C@H](C2)N(C)CC3 [DEXTROMETHORPHAN]	57	

SMILES	activity [1] [%]	activity (sf9) [%]
O=C(O)Cc1ccccc1Nc1c(Cl)cccc1Cl [DICLOFENAC]	198	
CC/C(=C(/CC)c1ccc(O)cc1)c1ccc(O)cc1 [DIETHYLSTILBESTROL]	11	
C[C@H]1O[C@@H](O[C@H]2[C@@H](O)C[C@H](O[C@H]3[C@@H](O)C[C@H](O[C@H]4CC[C@@]5(C)[C@H](CC[C@@H]6[C@@H]5C[C@@H](O)[C@]5(C)[C@@H](C7=CC(=O)OC7)CC[C@]65O)C4)O[C@@H]3C)O[C@@H]2C)C[C@H](O)[C@@H]1O [DIGOXIN]	99	
COc1ccc([C@@H]2Sc3ccccc3N(CCN(C)C)C(=O)[C@@H]2OC(C)=O)cc1 [DILTIAZEM]	40	
OCCN(CCO)c1nc(N2CCCCC2)c2nc(N(CCO)CCO)nc(N3CCCCC3)c2n1 [DIPYRIDAMOLE]	42	
COc1cccc2c1C(=O)c1c(O)c3c(c(O)c1C2=O)C[C@@](O)(C(=O)CO)C[C@@H]3O[C@H]1C[C@H](N)[C@H](O)[C@H](C)O1 [DOXORUBICIN]		87
CC(C)[C@@]1(NC(=O)[C@@H]2C=C3c4cccc5[nH]cc(c45)C[C@H]3N(C)C2)O[C@@]2(O)[C@@H]3CCCN3C(=O)[C@H](Cc3ccccc3)N2C1=O [ERGOCRISTINE]	60	
C#Cc1cccc(Nc2ncnc3cc(OCCOC)c(OCCOC)cc23)c1 [ERLOTINIB]	47	
CC[C@H]1OC(=O)[C@H](C)[C@@H](O[C@H]2C[C@@](C)(OC)[C@@H](O)[C@H](C)O2)[C@H](C)[C@@H](O[C@@H]2O[C@H](C)C[C@H](N(C)C)[C@H]2O)[C@](C)(O)C[C@@H](C)C(=O)[C@H](C)[C@@H](O)[C@]1(C)O [ERYTHROMYCIN]	89	
C[C@]12CC[C@@H]3c4ccc(O)cc4CC[C@H]3[C@@H]1CC[C@@H]2O [ESTRADIOL]	123	
C[C@]12CC[C@@H]3c4ccc(OS(=O)(=O)O)cc4CC[C@H]3[C@@H]1CCC2=O [ESTRONE SULFURIC ACID]	300	
COc1cc([C@@H]2c3cc4c(cc3[C@@H](O[C@@H]3O[C@@H]5CO[C@@H](C)O[C@H]5[C@H](O)[C@H]3O)[C@H]3COC(=O)[C@H]23)OCO4)cc(OC)c1O [ETOPOSIDE]	110	
CC1=C(CC(=O)O)c2cc(F)ccc2/C1=C\c1ccc(S(C)(=O)=O)cc1 [EXISULIND]	113	
CCOC(=O)C1=C(C)NC(C)=C(C(=O)OC)C1c1cccc(Cl)c1Cl (stereo not given) [FELODIPINE]	86	
CC(NCCC(c1ccccc1)c1ccccc1)c1ccccc1 (stereo not given) [FENDILINE]	5	
CC(C)OC(=O)C(C)(C)Oc1ccc(C(=O)c2ccc(Cl)cc2)cc1 [FENOFIBRATE]	46	
CC(C)(C(=O)O)c1ccc(C(O)CCCN2CCC(C(O)(c3ccccc3)c3ccccc3)CC2)cc1 (stereo not given) [FEXOFENADINE]	97	
Cc1onc(-c2c(F)cccc2Cl)c1C(=O)N[C@@H]1C(=O)N2[C@@H]1SC(C)(C)[C@@H]2C(=O)O [FLOXACILLIN]	73	
O=C1OC2(c3ccc(O)cc3Oc3cc(O)ccc32)c2ccccc21 [FLUORESCEIN]	82	
CC(C(=O)O)c1ccc(-c2ccccc2)c(F)c1 (stereo not given) [FLURBIPROFEN]	108	
CC(C)C(=O)Nc1ccc([N+](=O)[O-])c(C(F)(F)F)c1 [FLUTAMIDE]	126	
NS(=O)(=O)c1cc(C(=O)O)c(NCc2ccco2)cc1Cl [FUROSEMIDE]	118	
CC(=O)O[C@H]1C[C@@]2(C)[C@@H](C[C@@H](O)[C@H]3[C@@]4(C)CC[C@@H](O)[C@@H](C)[C@@H]4CC[C@@]32C)/C1=C(\CCC=C(C)C)C(=O)O [FUSIDIC ACID]	72	
COc1cc2ncnc(Nc3ccc(F)c(Cl)c3)c2cc1OCCCN1CCOCC1 [GEFITINIB]		74
O=c1c(-c2ccc(O)cc2)coc2cc(O)cc(O)c12 [GENISTEIN]	101	
Cc1ccc(S(=O)(=O)NC(=O)NN2CC3CCCC3C2)cc1 (stereo not given) [GLICLAZIDE]	174	

Source: ChEMBL document CHEMBL1150338, “Prediction and identification of drug interactions with the human ATP-binding cassette transporter multidrug-resistance associated protein 2 (MRP2; ABCC2)” (J Med Chem, 2008)
